Experimental findings from US12576099B2, “Ribose-modified cap analog and use thereof” (Beijing Youcare Kechuang Pharmaceutical Technology Co., Ltd., priority 2024, dated 2026) are described below.

The nature of data set [1]: Characterization of lipid nanoparticles encapsulating Fluc-mRNA prepared from different cap structures. The format is physicochemical. To be noted: for Particle size: LNP (YK-009/DSPC/cholesterol/DMG-PEG2000) with Fluc-mRNA transcribed using the named cap analog; for PDI: LNP with Fluc-mRNA transcribed using the named cap analog; for EE: encapsulation efficiency of LNP with Fluc-mRNA transcribed using the named cap analog. Here is the method:
Cationic lipid YK-009 (Beijing Youcare Kechuang Pharmaceutical Technology Co., Ltd.), DSPC (AVT (Shanghai) Pharmaceutical Technology Co., Ltd.), cholesterol (AVT (Shanghai) Pharmaceutical Technology Co., Ltd.), and DMG-PEG2000 were dissolved in ethanol at a molar ratio of 49:10:39.5:1.5, and the mRNA was diluted in 50 mM citrate buffer (pH=4). The ethanol lipid solution was mixed with the Fluc-mRNA aqueous solution prepared from different cap structures at a volume ratio of 1:3 using a microfluidic device at a flow rate of 10 mL/min to prepare LNPs at a weight ratio of total lipid to mRNA of approximately 15:1.
The resulting liposomes were diluted to 10-fold volume with PBS, and then ultrafiltered with a 300 KDa ultrafiltration tube to remove ethanol. The volume was then fixed to a certain volume with PBS. Finally, the LNPs were filtered through a 0.2 μm sterile filter to obtain an LNP preparation encapsulating Fluc-mRNA using YK-009/DSPC/cholesterol/DMG-PEG2000 (at a molar ratio of 49:10:39.5:1.5).
The particle size and polydispersity index (PDI) were determined by dynamic light scattering using a Malvern laser particle size analyzer. 10 μL of the liposome solution was taken, diluted to 1 mL with RNase-free deionized water, and added to a sample pool. Each sample was measured in triplicate. The measurement conditions were: a scattering angle of 90° and a temperature of 25° C. The encapsulation efficiency of LNPs was determined using the Quant-iT RiboGreen RNA Quantification Kit (Thermo Fisher Scientific, UK) according to the manufacturer's instructions.

In data set [2] the test system is HEK293T cells. In words: Translation efficiency of different capped luciferase mRNAs. Type of data set: cell-based. Conditions: for Relative fluorescence intensity: HEK293T, 0.5 μg mRNA per well, 24 hours, proportional to translation efficiency; for Multiple of m6A (relative fluorescence intensity): relative to m6A. How it is done:
• (1) HEK293T cells were cultured in DMEM medium containing 10% FBS and penicillin/streptomycin at 37° C. with 5% CO2. • (2)Cells in the culture dish were digested and counted, then spread in a 96-well plate at 10,000 cells per well, and cultured overnight until the cells adhered to the wall. • (3) When the cell density reached approximately 80%, transfection was performed by adding 0.5 μg of mRNA sample and Lipofectamine MessengerMAX Transfection Reagent (Invitrogen) per well according to the manufacturer's instructions. • (4) After the transfected cells were cultured at 37° C. with 5% CO2 for 24 hours, the growth medium was removed from the cells to be tested, and the cells were rinsed with PBS. After centrifugation to remove PBS, 50 μL of 1× lysis buffer was added. The cells and all liquid were transferred to a microcentrifuge tube and centrifuged. • (5) 20 μL of sample was taken and added to 100 μL of Dual-Lumi™ II Luciferase Assay Reagent pre-equilibrated to room temperature, and mixed appropriately. • (6) The mixture was incubated at room temperature (approximately 25° C.) for 5 minutes to stabilize the luminescence signal. Chemiluminescence was detected using a multifunctional microplate reader with a function for detecting chemiluminescence, and the data were recorded.
The relative fluorescence intensity is proportional to the translation efficiency of mRNA.

The target of data set [3] is T1, DCP2 enzyme (Schizosaccharomyces pombe, UniProt O13828).
T1 construct: purchased New England Biolabs
T1 sequence (O13828 1-243 limits assumed): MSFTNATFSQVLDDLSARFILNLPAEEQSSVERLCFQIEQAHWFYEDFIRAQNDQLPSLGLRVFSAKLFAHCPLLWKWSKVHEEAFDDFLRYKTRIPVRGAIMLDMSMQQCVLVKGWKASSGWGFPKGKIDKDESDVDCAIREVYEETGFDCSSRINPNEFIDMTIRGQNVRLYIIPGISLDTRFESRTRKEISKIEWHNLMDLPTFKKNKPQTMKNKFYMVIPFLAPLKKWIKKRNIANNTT
T1 sequence (Q9P805 1-127 partner): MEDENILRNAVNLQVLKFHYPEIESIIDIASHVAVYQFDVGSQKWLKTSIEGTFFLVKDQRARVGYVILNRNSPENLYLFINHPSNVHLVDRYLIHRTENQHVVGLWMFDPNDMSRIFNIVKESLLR
T1 sequence (Q10108 155-180 partner limits assumed): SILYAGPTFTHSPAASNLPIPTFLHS
In words: Decapping enzyme stability test. The format is biochemical. Conditions: for Decapping rate (%) of DCP2 enzyme: 50 U mRNA decapping enzyme, 37° C., 45 minutes. Here is the method:
[…] of RNA purified by polyacrylamide gel electrophoresis (PAGE) was subjected to an enzymatic reaction with 50 U of mRNA decapping enzyme (New England Biolabs) and 1×MDE buffer at 37° C. for 45 minutes. The enzymatic reactants were subjected to PAGE and stained with SYBR Green II (Lonza), followed by observation of the post-electrophoresis gel image on a Typhoon FLA 7000 (GE Healthcare) instrument. The electrophoresis band intensity ratio of RNA capping to RNA decapping was counted using ImageQuant (GE Healthcare) software, and the decapping rate of the decapping enzyme was calculated.

The subject of data set [4] is BALB/C mice. Briefly: In vivo imaging of Fluc-mRNA LNP expression in mice. Here is the method: The LNP preparation containing 5 μg of cap analog-transcribed Fluc-mRNA was intramuscularly injected into female BALB/C mice aged 4 to 6 weeks and weighing 17 to 19 g. At specific time points after administration (6 hours, 12 hours, 24 hours, 48 hours, 96 hours, and 168 hours), the mice were intraperitoneally injected with fluorescence imaging substrate. The mice were then allowed to move freely for 5 minutes, followed by detection of the total radiation intensity of the protein expressed by LNP-carrying mRNA in the mice using an IVIS Spectrum small-animal in vivo imaging system (corresponding to the amount of protein expression).
In the in vivo imaging experiments in mice, the multiple of the total radiation intensity for each group of mice relative to the m6A group is shown in Table 8 (where the total radiation intensity is represented as the given value×10^8 p/s).

Setting [5] is: 6 h, 5 μg Fluc-mRNA LNP intramuscular, mice.
Where [6] appears, read: 12 h, 5 μg Fluc-mRNA LNP intramuscular, mice.
The mark [7] stands for this setting: 24 h, 5 μg Fluc-mRNA LNP intramuscular, mice.
[8] abbreviates: 48 h, 5 μg Fluc-mRNA LNP intramuscular, mice.
Setting [9] is: 96 h, 5 μg Fluc-mRNA LNP intramuscular, mice.
Setting [10] is: 168 h, 5 μg Fluc-mRNA LNP intramuscular, mice.

The compound `CCO[C@@H]1[C@H](OP(=O)(O)OC[C@H]2O[C@@H](n3cnc4c(=O)[nH]c(N)nc43)[C@H](O)[C@@H]2O)[C@@H](COP(=O)(O)OP(=O)(O)OP(=O)(O)OC[C@H]2O[C@@H]([n+]3cn(C)c4c(=O)[nH]c(N)nc43)[C@H](O)[C@@H]2O)O[C@H]1n1cnc2c(N)ncnc21` [CAP-2′O-ethyl, reference compound] had a Particle size in data set [1] of 81.34 nm. Also, in data set [1], the PDI stood at 0.035. The compound further registered an EE in data set [1] of 96.3%. Also, the Relative fluorescence intensity in data set [2] turned out to be 1.13. The “Multiple of m6A (relative fluorescence intensity)” value in data set [2] is on record as 3.0. In addition, in data set [3], the “Decapping rate (%) of DCP2 enzyme” value came to 28.3%. The “Decrease relative to N-7113 (decapping rate)” value in data set [3] worked out at 15.5%. The “Multiple of total radiation intensity relative to m6A” value stood at 2.3 in data set [4] (6 h); 2.3 in data set [4] (12 h); 2.6 in data set [4] (24 h); 1.1 in data set [4] (48 h); 2.4 in data set [4] (96 h). For the same compound, the Total radiation intensity in data set [4] (setting [5]) was 5.41 ×108 p/s; in data set [4] (setting [6]) it was 4.80 ×108 p/s; in data set [4] (setting [7]), 1.73 ×108 p/s; in data set [4] (setting [8]), 0.57 ×108 p/s; in data set [4] (setting [9]), 0.09 ×108 p/s; in data set [4] (setting [10]) it was 0.02 ×108 p/s.
Regarding `COC[C@H]1[C@@H](O)[C@H]([n+]2cn(C)c3c(=O)[nH]c(N)nc32)O[C@@H]1COP(=O)(O)OP(=O)(O)OP(=O)(O)OC[C@H]1O[C@@H](n2cnc3c(N)ncnc32)[C@H](OC)[C@@H]1OP(=O)(O)OC[C@H]1O[C@@H](n2cnc3c(=O)[nH]c(N)nc32)[C@H](O)[C@@H]1O` [HN3002, reference compound], in data set [1], the Particle size came to 75.35 nm, the PDI came to 0.058 and the EE came to 95.1%. The “Multiple of m6A (relative fluorescence intensity)” value in data set [2] was determined as 3.0. Also, in data set [3], the “Decapping rate (%) of DCP2 enzyme” value is recorded as 23.3% and the “Decrease relative to N-7113 (decapping rate)” value was found to be 20.5%.
Compound `CO[C@@H]1[C@H](OP(=O)(O)OC[C@H]2O[C@@H](n3cnc4c(=O)[nH]c(N)nc43)[C@H](O)[C@@H]2O)[C@@H](COP(=O)(O)OP(=O)(O)OP(=O)(O)OC[C@H]2O[C@@H]([n+]3cn(C)c4c(=O)[nH]c(N)nc43)[C@H](O)[C@@H]2O)O[C@H]1n1cnc2c(N)ncnc21` [N-7113, reference compound] came in with a Particle size in data set [1] of 87.45 nm. This compound also had a PDI in data set [1] of 0.078. In addition, the EE in data set [1] is given as 96.1%. Further, in data set [2], the Relative fluorescence intensity was 1.00. Moreover, the “Multiple of m6A (relative fluorescence intensity)” value in data set [2] was 2.6. Besides, the “Decapping rate (%) of DCP2 enzyme” value in data set [3] was 43.8%. Further, the “Decrease relative to N-7113 (decapping rate)” value in data set [3] is 0.0%. The “Multiple of total radiation intensity relative to m6A” value was 2.2 in data set [4] (6 h); 2.0 in data set [4] (12 h); 2.3 in data set [4] (24 h); 0.9 in data set [4] (48 h); 2.4 in data set [4] (96 h). Besides, the Total radiation intensity in data set [4] (setting [5]) was 5.10 ×108 p/s; in data set [4] (setting [6]), 4.33 ×108 p/s; in data set [4] (setting [7]) it was 1.49 ×108 p/s; in data set [4] (setting [8]), 0.49 ×108 p/s; in data set [4] (setting [9]), 0.05 ×108 p/s; in data set [4] (setting [10]) it was 0.02 ×108 p/s. Also, the figures for the Total radiation intensity in data set [4] (at 12 hours) and in data set [4] (at 48 hours) were 4.33 ×10^8 p/s and 0.49 ×10^8 p/s, respectively.
For the compound `CNc1ncnc2c1ncn2[C@@H]1O[C@H](COP(=O)(O)OP(=O)(O)OP(=O)(O)OC[C@H]2O[C@@H]([n+]3cn(C)c4c(=O)[nH]c(N)nc43)[C@H](O)[C@@H]2O)[C@@H](OP(=O)(O)OC[C@H]2O[C@@H](n3cnc4c(=O)[nH]c(N)nc43)[C@H](O)[C@@H]2O)[C@H]1OC` [m6A, reference compound], the Particle size in data set [1] stood at 75.76 nm. The same compound showed a PDI in data set [1] of 0.047. This compound gave an EE in data set [1] of 93.8%. Moreover, the Relative fluorescence intensity in data set [2] worked out at 0.38. In addition, in data set [2], the “Multiple of m6A (relative fluorescence intensity)” value stood at 1.0. The “Decapping rate (%) of DCP2 enzyme” value in data set [3] is listed as 33.8%. For the same compound, the “Decrease relative to N-7113 (decapping rate)” value in data set [3] amounted to 10.0%. Also, the “Multiple of total radiation intensity relative to m6A” value in data set [4] (6 h), in data set [4] (12 h), in data set [4] (24 h), in data set [4] (48 h) and in data set [4] (96 h) was 1.0 each time. Moreover, the Total radiation intensity in data set [4] (setting [5]) is given as 2.35 ×108 p/s; in data set [4] (setting [6]) it was 2.12 ×108 p/s; in data set [4] (setting [7]), 0.66 ×108 p/s; in data set [4] (setting [8]) it was 0.52 ×108 p/s; in data set [4] (setting [9]), 0.08 ×108 p/s; in data set [4] (setting [10]), 0.02 ×108 p/s. In addition, the results for the Total radiation intensity in data set [4] (at 12 hours) and in data set [4] (at 48 hours) were 2.12 ×10^8 p/s and 0.52 ×10^8 p/s, respectively.
